Assay results: the supplement of paper PMC4862054

Legend:
Assay in all cases: normalised response (% of control), CellTox Green; higher = less cell death (100 = DMSO, 0 = benzethonium chloride kill control)
Settings in all cases: incubation time: 72 h
BT-474 = system: BT-474
Summary of the method: (§1)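 A 20 µl suspension of breast cancer cells was seeded into each well of 384-well plates containing compound at 5 concentrations in 10-fold steps over a compound-specific 10,000-fold range. After 72 h incubation, CellTox Green fluorescence (485/520 nm) was read first, and CellTiter-Glo luminescence was read after 10 min at room temperature. Each plate was normalised against 0.1 % DMSO (100) and a positive kill control (0), and each value is the normalised signal at one concentration.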

BT-549 = system: BT-549
Summary of the method: as §1

CAL-120 = system: CAL-120
Summary of the method: as §1

CAL-148 = system: CAL-148
Summary of the method: as §1

CAL-51 = system: CAL-51
Summary of the method: as §1

CAL-85-1 = system: CAL-85-1
Summary of the method: as §1

DU-4475 = system: DU-4475
Summary of the method: as §1

HCC1143 = system: HCC1143
Summary of the method: as §1

HCC1599 = system: HCC1599
Summary of the method: as §1

HCC1937 = system: HCC1937
Summary of the method: as §1

HDQ-P1 = system: HDQ-P1
Summary of the method: as §1

Hs578T = system: Hs578T
Summary of the method: as §1

MCF-10A = system: MCF-10A
Summary of the method: as §1

MDA-MB-231 = system: MDA-MB-231
Summary of the method: as §1

MDA-MB-436 = system: MDA-MB-436
Summary of the method: as §1

MDA-MB-453 = system: MDA-MB-453
Summary of the method: as §1

MDA-MB-468 = system: MDA-MB-468
Summary of the method: as §1

MFM-223 = system: MFM-223
Summary of the method: as §1

| Compound | normalised response (BT-474) [%] | normalised response (BT-549) [%] | normalised response (CAL-120) [%] | normalised response (CAL-148) [%] | normalised response (CAL-51) [%] | normalised response (CAL-85-1) [%] | normalised response (DU-4475) [%] | normalised response (HCC1143) [%] | normalised response (HCC1599) [%] | normalised response (HCC1937) [%] | normalised response (HDQ-P1) [%] | normalised response (Hs578T) [%] | normalised response (MCF-10A) [%] | normalised response (MDA-MB-231) [%] | normalised response (MDA-MB-436) [%] | normalised response (MDA-MB-453) [%] | normalised response (MDA-MB-468) [%] | normalised response (MFM-223) [%] |
| --- | --- | --- | --- | --- | --- | --- | --- | --- | --- | --- | --- | --- | --- | --- | --- | --- | --- | --- |
| CN1CC[C@H](c2c(O)cc(O)c3c(=O)cc(-c4ccccc4Cl)oc23)[C@H](O)C1 [Alvocidib] (1000 nM) | 90.2 | 83.2 | 85.3 | -101 | 77.1 | 24.9 | 85.3 | 85.1 | 50.4 | 115 | 58 | 65.7 | 18.7 | 30.7 | 80.5 | 97.7 | 109 | 56.6 |
| Cc1c2oc3c(C)ccc(C(=O)N[C@@H]4C(=O)N[C@H](C(C)C)C(=O)N5CCC[C@H]5C(=O)N(C)CC(=O)N(C)[C@@H](C(C)C)C(=O)O[C@@H]4C)c3nc-2c(C(=O)N[C@@H]2C(=O)N[C@H](C(C)C)C(=O)N3CCC[C@H]3C(=O)N(C)CC(=O)N(C)[C@@H](C(C)C)C(=O)O[C@@H]2C)c(N)c1=O [Dactinomycin] (1000 nM) | 89.6 | 93 | 101 | 79.9 | 95.1 | 13.8 | 104 | 59.3 | 113 | 124 | 94.9 | 40.6 | 41.4 | 52.3 | 116 | 104 | 52.8 | 60.5 |
| C[C@]1(c2nc3c(C(N)=O)cccc3[nH]2)CCCN1 [Veliparib] (1000 nM) | 103 | 129 | 102 | 105 | 100 | 90 | 99 | 64.8 | 105 | 120 | 99 | 91.6 | 106 | 116 | 91.3 | 106 | 139 | 98.1 |
| C=CCNC1=C2C[C@@H](C)C[C@H](OC)[C@H](O)[C@@H](C)/C=C(\C)[C@H](OC(N)=O)[C@@H](OC)/C=C\C=C(/C)C(=O)NC(=CC1=O)C2=O [Tanespimycin] (1000 nM) | 76.9 | 99.8 | 94.5 | 28.2 | 48.8 | 68.2 | 62.4 | 91.2 | 95.6 | 120 | 60.1 | 98.9 | 31.3 | 36.8 | 24.3 | 93.3 | 121 | 98.9 |
| S=c1[nH]cnc2nc[nH]c12 [Mercaptopurine] (1000 nM) | 94.6 | 77.2 | 104 | 102 | 102 | 104 | 97.6 | 88.2 | 92.1 | 23.3 | 97.3 | 104 | 108 | 96.1 | 100 | 101 | 155 | 85.8 |
| COc1cccc2c1C(=O)c1c(O)c3c(c(O)c1C2=O)C[C@@](O)(C(=O)CO)C[C@@H]3O[C@H]1C[C@H](N)[C@H](O)[C@H](C)O1 [Doxorubicin] (1000 nM) | 105 | 185 | 92.7 | 66.4 | 22.4 | 77.5 | 111 | 143 | 149 | 148 | 120 | 159 | 129 | 160 | 126 | 130 | 363 | 68 |
| CS(=O)(=O)c1ccc(C(=O)Nc2ccc(Cl)c(-c3ccccn3)c2)c(Cl)c1 [Vismodegib] (10000 nM) | 102 | 119 | 100 | 105 | 102 | 138 | 100 | 76.7 | 98.8 | 84.1 | 113 | 82.8 | 85.5 | 94.1 | 85.5 | 80.9 | 226 | 98 |
| CN1CC[C@H](c2c(O)cc(O)c3c(=O)cc(-c4ccccc4Cl)oc23)[C@H](O)C1 [Alvocidib] (10000 nM) | 88.8 | 66.1 | 81.8 | 92 | 63.9 | -9.96 | 94.9 | 92.5 | 86 | 92.3 | 71.5 | 12.8 | -1.97 | 25.4 | 100 | 102 | 52.6 | 47.7 |
| COc1cccc2cc(-c3nc([C@H]4CC[C@H](C(=O)O)CC4)n4ncnc(N)c34)[nH]c12 [OSI-027] (10000 nM) | 94.2 | 113 | 96.9 | 72.5 | 94.5 | 89.2 | 99.7 | 115 | 107 | 112 | 106 | 130 | 101 | 130 | 109 | 103 | 86 | 84 |
| CC[C@]1(O)C[C@@H]2CN(CCc3c([nH]c4ccccc34)[C@@](C(=O)OC)(c3cc4c(cc3OC)N(C)[C@H]3[C@@](O)(C(=O)OC)[C@H](OC(C)=O)[C@]5(CC)C=CCN6CC[C@]43[C@@H]65)C2)C1 [Vinblastine] (100 nM) | 67.5 | 66.2 | 88.2 | 75.2 | 32.1 | 61.1 | 93.8 | 56.7 | 78.4 | -65.7 | 96.8 | -12.8 | 46 | 28.5 | 88.4 | 103 | 19.1 | 54.7 |
| Nc1ccn([C@@H]2O[C@H](CO)[C@@H](O)[C@@H]2O)c(=O)n1 [Cytarabine] (1000 nM) | 103 | 111 | 106 | 69.9 | 37.4 | 109 | 109 | 112 | 104 | 117 | 107 | 85.2 | 115 | 106 | 83.5 | 112 | 159 | 97.5 |
| OC[C@H]1O[C@@H](n2cnc3c2N=CNC[C@H]3O)C[C@@H]1O [Pentostatin] (10000 nM) | 103 | 88.3 | 104 | 102 | 102 | 85.2 | 97.4 | 110 | 95.2 | 103 | 101 | 103 | 103 | 118 | 97.6 | 104 | 112 | 90.8 |
| C=CCNC1=C2C[C@@H](C)C[C@H](OC)[C@H](O)[C@@H](C)/C=C(\C)[C@H](OC(N)=O)[C@@H](OC)/C=C\C=C(/C)C(=O)NC(=CC1=O)C2=O [Tanespimycin] (10000 nM) | 62.6 | 109 | 84.2 | 39.8 | 58.7 | 75.6 | 69 | 52.5 | 108 | 102 | 55.1 | 61.2 | 39.1 | 15.4 | 99.4 | 87.4 | 100 | 86 |
| Nc1ccn([C@@H]2O[C@H](CO)[C@@H](O)[C@@H]2O)c(=O)n1 [Cytarabine] (10000 nM) | 100 | 99.4 | 108 | 69.2 | 26.1 | 91.7 | 101 | 64.6 | 95.5 | 96.1 | 111 | 134 | 48.4 | 113 | 93.6 | 104 | 156 | 107 |
